Like-named read-outs stand apart in the source and are kept apart here.
Tests used:
[1] = rotating rod test (sedative/muscle relaxant properties); type: in vivo, mice; details: Mus musculus, iv, i.v., read-out: Rotating rod test, ED550
Protocol: The sedative/muscle relaxant properties of the compounds of formula I in accordance with the invention can be determined, for example, in the rotating rod test. Mice weighing 19-21 g are used for this test. They have free access to feed and drinking water up to 1 h before the beginning of the test. They are brought into the test laboratory at least 30 min. before the test. In the rotating rod test the animals are placed on a horizontally arranged, smooth metal rod having a diameter of 3 cm, which is rotated at 2 revolutions per min. Initially, the animals are given the opportunity of familiarizing themselves with the test situation for 30 sec. Subsequently, those animals which succeed in remaining on the rod for at least 1 min. are selected. These animals are then given the test preparations intravenously in different dosages. At various points in time it is then determined whether the animals are able to remain on the rod for a minimum period (minimum period: 10 sec.; from 5 min. after administration: 1 min.). That dosage at which 50% of the animals are capable of remaining on the rod (ED50) is determined.

[2] = target: central benzodiazepine receptors; assay: inhibition of the binding of tritiated flumazenil to the specific benzodiazepine receptors in the cortex of rats; details: read-out: Affinity to benzodiazepine receptors IC50
Protocol: The affinity of compounds of general formula I to the central benzodiazepine receptors has been established in vitro according to the methods described in Nature 294, 763-765 (1981) and J. Neurochemistry 37, 714-722 (1981). According to these methods, the inhibition of the binding of tritiated flumazenil to the specific benzodiazepine receptors in the cortex of rats by the respective test substances is determined. The IC50 ("50% inhibiting concentration") denotes that concentration of the respective test substance which brings about a 50 percent inhibition of the specific binding of tritiated flumazenil to the specific benzodiazepine receptors in the cortex of rats.

[3] = 15 s, 15 sec after administration
[4] = 0.5 min, 30 sec after administration
[5] = 1 min, 60 sec after administration
[6] = 2 min, 2 min after administration
[7] = 5 min, 5 min after administration
[8] = 0.25 h, 15 min after administration
[9] = 0.5 h, 30 min after administration
[10] = 1 h, 60 min after administration

## CCCN(CCC)Cc1cnc(-c2ncn3c2[C@@H]2CCN2C(=O)c2sccc2-3)o1 [D, (S)-1-(5-dipropylaminomethyl-oxazol-2-yl)-11,11a-dihydro-8H,10H-azeto[1,2-a]imidazo[5,1-c]thieno[3,2-e][1,4]diazepin-8-one]
[1]; [3]
  ED50: 0.1 mg/kg
[1]; [4]
  ED50: 0.2 mg/kg
[1]; [5]
  ED50: 0.4 mg/kg
[1]; [6]
  ED50: 0.5 mg/kg
[1]; [7]
  ED50: 1.8 mg/kg
[1]; [8]
  ED50: 3.6 mg/kg
[1]; [9]
  ED50: > 10 mg/kg
[1]; [10]
  ED50: > 10 mg/kg
[2]
  IC50: 7 nM

## CCCCN(CCCC)Cc1cnc(-c2ncn3c2CN(C)C(=O)c2cc(F)ccc2-3)o1 [H, 3-(5-dibutylaminomethyl-oxazol-2-yl)-8-fluoro-5-methyl-5,6-dihydro-4H-imidazo[1,5-a][1,4]benzodiazepin-6-one]
[1]; [3]
  ED50: 1.1 mg/kg
[1]; [4]
  ED50: 1.1 mg/kg
[1]; [5]
  ED50: 1.2 mg/kg
[1]; [6]
  ED50: 2.1 mg/kg
[1]; [7]
  ED50: 3.4 mg/kg
[1]; [8]
  ED50: ≥ 10 mg/kg
[1]; [9]
  ED50: > 10 mg/kg
[1]; [10]
  ED50: > 10 mg/kg
[2]
  IC50: 35 nM

## CCCN(CCC)Cc1csc(-c2ncn3c2CN(C)C(=O)c2c(Cl)cccc2-3)n1 [J, 7-chloro-3-(4-dipropylaminomethyl-thiazol-2-yl)-5-methyl-5,6-dihydro-4H-imidazo[1,5-a][1,4]benzodiazepin-6-one]
[1]; [3]
  ED50: 0.7 mg/kg
[1]; [4]
  ED50: 0.9 mg/kg
[1]; [5]
  ED50: 2.3 mg/kg
[1]; [6]
  ED50: ≥ 10 mg/kg
[1]; [7]
  ED50: ≥ 10 mg/kg
[1]; [8]
  ED50: > 10 mg/kg
[1]; [9]
  ED50: > 10 mg/kg
[1]; [10]
  ED50: > 10 mg/kg
[2]
  IC50: 5.2 nM

## CCCN(CCC)Cc1cnc(-c2ncn3c2CN(C)C(=O)c2cc(F)ccc2-3)o1 [B, 3-(5-dipropylaminomethyl-oxazol-2-yl)-8-fluoro-5-methyl-5,6-dihydro-4H-imidazo[1,5-a][1,4]benzodiazepin-6-one]
[1]; [3]
  ED50: 0.3 mg/kg
[1]; [4]
  ED50: 0.5 mg/kg
[1]; [5]
  ED50: 0.7 mg/kg
[1]; [6]
  ED50: 1.6 mg/kg
[1]; [7]
  ED50: 2.6 mg/kg
[1]; [8]
  ED50: 4.9 mg/kg
[1]; [9]
  ED50: > 10 mg/kg
[1]; [10]
  ED50: > 10 mg/kg
[2]
  IC50: 59 nM

## CCCN(CCC)Cc1csc(-c2ncn3c2[C@@H]2CCN2C(=O)c2c(Cl)cccc2-3)n1 [E, (S)-8-chloro-1-(4-dipropylaminomethyl-thiazol-2-yl)-12,12a-dihydro-9H,11H-azeto[2,1-c]imidazo[1,5-a][1,4]benzodiazepin-9-one]
[1]; [3]
  ED50: 0.3 mg/kg
[1]; [4]
  ED50: 0.3 mg/kg
[1]; [5]
  ED50: 0.3 mg/kg
[1]; [6]
  ED50: 0.9 mg/kg
[1]; [7]
  ED50: 1 mg/kg
[1]; [8]
  ED50: 3.2 mg/kg
[1]; [9]
  ED50: ≥ 10 mg/kg
[1]; [10]
  ED50: > 10 mg/kg
[2]
  IC50: 11 nM

## CCCN(CCC)Cc1cnc(-c2ncn3c2CN(C)C(=O)c2ccccc2-3)o1 [F, 3-(5-dipropylaminomethyl-oxazol-2-yl)-5-methyl-5,6-dihydro-4H-imidazo[1,5-a][1,4]benzodiazepin-6-one]
[1]; [3]
  ED50: 1.7 mg/kg
[1]; [4]
  ED50: 3.9 mg/kg
[1]; [5]
  ED50: 4.7 mg/kg
[1]; [6]
  ED50: ≥ 10 mg/kg
[1]; [7]
  ED50: ≥ 10 mg/kg
[1]; [8]
  ED50: > 10 mg/kg
[1]; [9]
  ED50: > 10 mg/kg
[1]; [10]
  ED50: > 10 mg/kg
[2]
  IC50: 66 nM

## CCCN(CCC)Cc1csc(-c2ncn3c2CN(C)C(=O)c2c-3ccc(F)c2Cl)n1 [L, 7-chloro-3-(4-dipropylaminomethyl-thiazol-2-yl)-8-fluoro-5-methyl-5,6-dihydro-4H-imidazo[1,5-a][1,4]benzodiazepin-6-one]
[1]; [3]
  ED50: 1.1 mg/kg
[1]; [4]
  ED50: 1.1 mg/kg
[1]; [5]
  ED50: 1.1 mg/kg
[1]; [6]
  ED50: 2.8 mg/kg
[1]; [7]
  ED50: 4.7 mg/kg
[1]; [8]
  ED50: 5.7 mg/kg
[1]; [9]
  ED50: ≥ 10 mg/kg
[1]; [10]
  ED50: > 10 mg/kg
[2]
  IC50: 16 nM

## CCCN(CCC)Cc1cnc(-c2ncn3c2CN(C)C(=O)c2c-3ccc(F)c2Cl)o1 [C, 7-chloro-3-(5-dipropylaminomethyl-oxazol-2-yl)-8-fluoro-5-methyl-5,6-dihydro-4H-imidazo[1,5-a][1,4]benzodiazepin-6-one]
[1]; [3]
  ED50: 0.3 mg/kg
[1]; [4]
  ED50: 0.3 mg/kg
[1]; [5]
  ED50: 0.5 mg/kg
[1]; [6]
  ED50: 0.7 mg/kg
[1]; [7]
  ED50: 1.6 mg/kg
[1]; [8]
  ED50: 2 mg/kg
[1]; [9]
  ED50: > 10 mg/kg
[1]; [10]
  ED50: ≥ 10 mg/kg
[2]
  IC50: 7 nM

## CCCN(CCC)Cc1cnc(-c2ncn3c2CN(C)C(=O)c2c(Cl)cccc2-3)o1 [G, 7-chloro-3-(5-dipropylaminomethyl-oxazol-2-yl)-5-methyl-5,6-dihydro-4H-imidazo[1,5-a][1,4]benzodiazepin-6-one]
[1]; [3]
  ED50: 1 mg/kg
[1]; [4]
  ED50: 1.2 mg/kg
[1]; [5]
  ED50: 1.8 mg/kg
[1]; [6]
  ED50: 2.1 mg/kg
[1]; [7]
  ED50: 3 mg/kg
[1]; [8]
  ED50: 3.4 mg/kg
[1]; [9]
  ED50: 5.6 mg/kg
[1]; [10]
  ED50: > 10 mg/kg
[2]
  IC50: 4 nM

## CCCN(CCC)Cc1coc(-c2ncn3c2CN(C)C(=O)c2c(Cl)cccc2-3)n1 [M, 7-chloro-3-(4-dipropylaminomethyl-oxazol-2-yl)-5-methyl-5,6-dihydro-4H-imidazo[1,5-a][1,4]benzodiazepin-6-one]
[1]; [3]
  ED50: 0.4 mg/kg
[1]; [4]
  ED50: 1 mg/kg
[1]; [5]
  ED50: 1.2 mg/kg
[1]; [6]
  ED50: 3 mg/kg
[1]; [7]
  ED50: 3.7 mg/kg
[1]; [8]
  ED50: 8.8 mg/kg
[1]; [9]
  ED50: ≥ 10 mg/kg
[1]; [10]
  ED50: > 10 mg/kg
[2]
  IC50: 15 nM

## CCCN(CCC)Cc1cnc(-c2ncn3c2[C@@H]2CCN2C(=O)c2c(Cl)cccc2-3)o1 [A, (S)-8-chloro-1-(5-dipropylaminomethyl-oxazol-2-yl)-12,12a-dihydro-9H,11H-azeto[2,1-c]imidazo[1,5-a][1,4]benzodiazepin-9-one]
[1]; [3]
  ED50: 0.3 mg/kg
[1]; [4]
  ED50: 0.4 mg/kg
[1]; [5]
  ED50: 0.6 mg/kg
[1]; [6]
  ED50: 1.1 mg/kg
[1]; [7]
  ED50: 1.8 mg/kg
[1]; [8]
  ED50: > 10 mg/kg
[1]; [9]
  ED50: > 10 mg/kg
[1]; [10]
  ED50: > 10 mg/kg
[2]
  IC50: 32 nM

## CCCN(CCC)Cc1cnc(-c2ncn3c2CN(C)C(=O)c2sccc2-3)o1 [I, 3-(5-dipropylaminomethyl-oxazol-2-yl)-5-methyl-5,6-dihydro-4H-imidazo[1,5-a]thieno[2,3-f][1,4]diazepin-6-one]
[1]; [3]
  ED50: 1.8 mg/kg
[1]; [4]
  ED50: 1.7 mg/kg
[1]; [5]
  ED50: 3.4 mg/kg
[1]; [6]
  ED50: 3.9 mg/kg
[1]; [7]
  ED50: 8.7 mg/kg
[1]; [8]
  ED50: > 10 mg/kg
[1]; [9]
  ED50: > 10 mg/kg
[1]; [10]
  ED50: > 10 mg/kg
[2]
  IC50: 17 nM

## CCCN(CCC)Cc1csc(-c2ncn3c2[C@@H]2CCCN2C(=O)c2c(Cl)cccc2-3)n1 [K, (S)-8-chloro-1-(4-dipropylaminomethyl-thiazol-2-yl)-11,12,13,13a-tetrahydro-9H-imidazo[1,5-a]pyrrolo[2,1-c][1,4]benzodiazepin-9-one]
[1]; [3]
  ED50: 1.8 mg/kg
[1]; [4]
  ED50: 1.8 mg/kg
[1]; [5]
  ED50: 5.6 mg/kg
[1]; [6]
  ED50: 3.7 mg/kg
[1]; [7]
  ED50: 5.6 mg/kg
[1]; [8]
  ED50: ≥ 10 mg/kg
[1]; [9]
  ED50: ≥ 10 mg/kg
[1]; [10]
  ED50: > 10 mg/kg
[2]
  IC50: 15 nM

From patent US5885986A, “Oxazolyl- and thiazolylimidazo-benzo- and thienodiazepines and their use as medicaments” (Hoffmann-La Roche Inc., priority 1994, dated 1999)
